# Source: paper PMC12682947, “Identification of New KCNT1‐Epilepsy Drugs by In Silico, Cell, and Drosophila Modeling” (Annals of Neurology, 2025)
# Structures can show the parent of a compound that is named as a salt. Where two headings read alike, the source gives them in different places.
# Target: T1, WT/Y796H KCNT1 channels (Homo sapiens, UniProt Q5JUK3, Y796H)
# T1 construct: T2A self-cleaving motif ([…]) following the first subunit (C); expressed in transfected cells; host or cells: CHO cells
# T1 sequence (Q5JUK3 1-1230): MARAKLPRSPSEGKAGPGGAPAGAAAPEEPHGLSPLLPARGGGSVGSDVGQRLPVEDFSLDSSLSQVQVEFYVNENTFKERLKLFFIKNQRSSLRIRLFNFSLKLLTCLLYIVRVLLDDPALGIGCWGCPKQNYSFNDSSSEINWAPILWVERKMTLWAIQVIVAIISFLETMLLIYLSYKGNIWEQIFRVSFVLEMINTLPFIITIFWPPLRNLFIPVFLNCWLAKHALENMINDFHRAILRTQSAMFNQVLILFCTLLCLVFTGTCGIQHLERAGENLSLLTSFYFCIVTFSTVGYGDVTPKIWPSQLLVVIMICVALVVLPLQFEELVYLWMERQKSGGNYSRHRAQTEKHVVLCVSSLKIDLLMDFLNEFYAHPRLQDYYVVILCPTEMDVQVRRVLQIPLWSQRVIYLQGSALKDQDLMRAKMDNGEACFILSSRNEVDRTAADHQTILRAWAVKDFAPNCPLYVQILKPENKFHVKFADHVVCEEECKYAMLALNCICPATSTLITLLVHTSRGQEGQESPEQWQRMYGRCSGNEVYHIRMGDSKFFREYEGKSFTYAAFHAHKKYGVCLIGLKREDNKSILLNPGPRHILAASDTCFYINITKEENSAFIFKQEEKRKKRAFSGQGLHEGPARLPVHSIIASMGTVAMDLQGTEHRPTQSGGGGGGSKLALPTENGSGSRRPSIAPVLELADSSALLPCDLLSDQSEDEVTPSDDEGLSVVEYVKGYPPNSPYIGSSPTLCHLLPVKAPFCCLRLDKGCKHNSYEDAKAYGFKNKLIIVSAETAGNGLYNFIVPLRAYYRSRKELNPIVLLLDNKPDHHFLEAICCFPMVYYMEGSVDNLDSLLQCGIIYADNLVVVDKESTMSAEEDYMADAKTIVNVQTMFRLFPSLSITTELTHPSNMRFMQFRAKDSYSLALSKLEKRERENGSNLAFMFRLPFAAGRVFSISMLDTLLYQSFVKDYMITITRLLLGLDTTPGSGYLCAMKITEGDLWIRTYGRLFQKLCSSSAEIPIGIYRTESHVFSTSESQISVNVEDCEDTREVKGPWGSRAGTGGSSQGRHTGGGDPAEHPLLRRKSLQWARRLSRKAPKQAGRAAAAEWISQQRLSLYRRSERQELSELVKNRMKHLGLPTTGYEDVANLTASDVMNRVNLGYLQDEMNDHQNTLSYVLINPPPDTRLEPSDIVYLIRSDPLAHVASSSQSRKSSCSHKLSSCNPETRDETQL
# T1 sequence (Q5JUK3 2-1230 Y796H limits assumed): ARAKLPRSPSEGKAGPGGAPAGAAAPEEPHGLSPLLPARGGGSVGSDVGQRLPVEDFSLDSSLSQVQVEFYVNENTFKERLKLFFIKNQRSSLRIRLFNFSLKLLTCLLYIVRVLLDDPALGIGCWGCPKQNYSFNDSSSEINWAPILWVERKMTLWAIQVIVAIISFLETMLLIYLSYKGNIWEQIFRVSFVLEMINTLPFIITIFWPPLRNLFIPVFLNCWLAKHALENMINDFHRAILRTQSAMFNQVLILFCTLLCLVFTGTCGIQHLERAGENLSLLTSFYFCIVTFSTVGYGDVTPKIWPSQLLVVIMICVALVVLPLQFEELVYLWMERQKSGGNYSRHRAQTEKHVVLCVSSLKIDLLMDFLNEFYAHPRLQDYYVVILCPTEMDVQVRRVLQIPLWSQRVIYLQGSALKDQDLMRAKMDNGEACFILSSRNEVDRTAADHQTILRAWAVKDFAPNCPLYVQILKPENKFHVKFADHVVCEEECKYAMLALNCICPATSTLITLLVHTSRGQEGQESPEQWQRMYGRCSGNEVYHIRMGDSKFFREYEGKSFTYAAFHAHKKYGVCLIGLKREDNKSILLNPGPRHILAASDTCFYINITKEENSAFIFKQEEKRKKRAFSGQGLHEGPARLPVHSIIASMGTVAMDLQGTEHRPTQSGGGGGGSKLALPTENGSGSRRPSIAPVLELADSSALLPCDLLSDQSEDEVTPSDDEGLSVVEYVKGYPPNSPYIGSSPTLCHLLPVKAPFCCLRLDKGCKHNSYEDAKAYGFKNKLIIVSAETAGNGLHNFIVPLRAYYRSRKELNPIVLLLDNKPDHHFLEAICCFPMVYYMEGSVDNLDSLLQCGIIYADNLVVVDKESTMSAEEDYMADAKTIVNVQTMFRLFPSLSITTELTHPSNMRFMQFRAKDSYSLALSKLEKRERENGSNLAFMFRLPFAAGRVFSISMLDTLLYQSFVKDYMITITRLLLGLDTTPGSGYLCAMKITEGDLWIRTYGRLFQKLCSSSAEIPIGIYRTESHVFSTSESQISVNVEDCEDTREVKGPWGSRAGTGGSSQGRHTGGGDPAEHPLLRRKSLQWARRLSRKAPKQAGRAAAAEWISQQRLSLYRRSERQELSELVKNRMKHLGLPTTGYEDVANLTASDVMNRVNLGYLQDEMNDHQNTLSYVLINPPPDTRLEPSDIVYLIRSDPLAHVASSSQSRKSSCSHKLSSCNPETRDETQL
# Assay: Whole-cell patch clamp of WT/Y796H KCNT1 channels expressed in CHO cells
# Format: cell-based
# Description: To replicate the heterozygous nature of KCNT1‐associated disorders and obtain channels comprising wild‐type (WT) and mutated subunits, a concatemeric approach was taken. To generate human KCNT1 concatemers, plasmids termed donor and recipient were generated from the pcDNA6‐KCNT1 construct used previously[16] and empty pcDNA6 V5/His6 vector (Invitrogen) using standard polymerase chain reaction (PCR) and cloning techniques. The insert of the donor construct comprised the KCNT1 coding sequence that lacked a start codon and preceded by bases encoding a […] linker. […] The recipient construct was generated by deleting the stop codon and introducing a unique XhoI site. Sequences containing disease mutation Y796H were subcloned into these constructs from a plasmid used previously.[16] All sequences generated by PCR were confirmed by Sanger sequencing (Genewiz, Takeley, UK). Finally, the concatemeric construct was generated by subcloning the XhoI/AgeI fragment from the donor plasmid, containing the in‐frame linker and complete subunit sequence into the same sites in the recipient plasmid. Recombination‐deficient competent Escherichia coli (E. coli) cells and 32°C incubation temperature were used to reduce the frequency of deletions between identical sequences in the plasmid, which was confirmed by restriction analysis. For other experiments, constructs with WT, G288S, R398Q, or R928C mutant forms of KCNT1 cDNA, tagged with YFP‐6His in the pCMV‐entry vectors, were described previously.[10]
# The CHO cells were cultured in Dulbecco's modified Eagle's Medium (ThermoFisher, UK) supplemented with 10% (v/v) fetal bovine serum, 50 U/ml penicillin and 0.05 mg/ml streptomycin, and incubated at 37°C in 5% CO2 atmosphere. For whole cell recording of WT/Y796H KCNT1, CHO cells were transiently co‐transfected with concatemeric WT/Y796H and EYFP, as described previously.[29] For electrophysiological experiments, cells were plated onto borosilicate glass cover slips and used 2 to 4 days later. Human embryonic kidney 293T cells (HEK293T) were cultured in the same manner, but with medium supplemented with 2 mM L‐glutamine, and 1% (v/v) nonessential amino acids. For excised inside‐out recording of homomeric WT or mutant YFP‐tagged KCNT1, HEK293T cells plated on glass cover slips were transfected using Attractene Transfection Reagent (Qiagen, Germany) according to the manufacturer's instructions and used 2 to 3 days later.
# Whole cell recordings from transiently transfected CHO cells were conducted at room temperature and analyzed as described previously.[29] The pipette (intracellular) solution contained, in mM, 100 K‐gluconate, 30 KCl, 10 Na‐gluconate, 29 glucose, 5 EGTA, and 10 HEPES, adjusted to pH 7.3 with KOH and the bath (extracellular) solution contained, in mM, 140 NaCl, 1 CaCl2, 5 KCl, 29 glucose, 10 HEPES, and 1 MgCl2, adjusted to pH 7.4 with NaOH. For current‐voltage and conductance‐voltage analysis of the concatemeric constructs, cells were held at −80 mV and 400 ms pulses were applied to voltages between −100 and 80 mV. Conductance values (G) with each voltage pulse (V) were obtained by dividing the peak steady‐state current by the driving force (command voltage minus the measured reversal potential). Conductance‐voltage data were fit by a Boltzmann function, G = (G max – G min)/(1 + e^(V‐V½)/k)) + G min, where G max and G min are the maximum and minimum conductance values, V ½ the half‐maximal activation voltage, and slope k. The liquid junction potential was calculated and was used to correct voltage values after data collection. Inhibition by drugs, which were obtained from commercial sources, was determined from currents evoked by 500 ms voltage ramps from −100 to 0 mV at 0.2 hertz (Hz) as described previously.[16] Initially, the drugs (10 mM in DMSO) were diluted to 10 μM in a bath solution and applied via gravity perfusion for 2 minutes, followed by at least a 2‐minute wash with drug‐free solution prior to addition of the next drug. […]
# [1] = whole-cell patch clamp, CHO cells
# [2] = whole-cell patch clamp, CHO cells, concentration-inhibition analysis, read-out: mean ± SEM IC50
smiles,measurement,setting,value
CC(C)N1CCN(c2ccc(OCC3COC(Cn4cncn4)(c4ccc(Cl)cc4Cl)O3)cc2)CC1 (stereo not shown) [terconazole],inhibition of WT/Y796H KCNT1 channels at 10 μM,[1],did not exhibit inhibition
CC(C)c1c(C(=O)Nc2ccccc2)c(-c2ccccc2)c(-c2ccc(F)cc2)n1CC[C@@H](O)C[C@@H](O)CC(=O)O [atorvastatin],inhibition of WT/Y796H KCNT1 channels at 10 μM,[1],inhibited
same,IC50,[2],7.54 ± 0.99 µM
CS(=O)(=O)c1cccc(C[C@H](NC(=O)c2c(Cl)cc3c(c2Cl)CCN(C(=O)c2ccc4ccoc4c2)C3)C(=O)O)c1 [lifitegrast],inhibition of WT/Y796H KCNT1 channels at 10 μM,[1],did not exhibit inhibition
O=C(OCCN1CCN(c2cccc(C(F)(F)F)c2)CC1)c1ccccc1Nc1ccnc2cc(C(F)(F)F)ccc12 [antrafenine],IC50,,1.3 ± 0.2 µM
same,inhibition of WT/Y796H KCNT1 channels at 10 μM,[1],inhibited
CC(C)[C@@H](C)/C=C/[C@@H](C)[C@H]1CC[C@H]2/C(=C/C=C3\C[C@@H](O)CC[C@@H]3C)CCC[C@]12C [dihydrotachysterol],inhibition of WT/Y796H KCNT1 channels at 10 μM,[1],did not exhibit inhibition
"CCOc1nc2cccc(C(=O)OC(C)OC(=O)OC3CCCCC3)c2n1Cc1ccc(-c2ccccc2-c2nn[nH]n2)cc1 (stereo not shown) [Candesartan cilexetil, candesartan cilexetil]",potency of concentration-dependent inhibition (in words),[1],much less potent
CC(C)(C)NC(=O)[C@@H]1CN(Cc2cccnc2)CCN1C[C@@H](O)C[C@@H](Cc1ccccc1)C(=O)N[C@H]1c2ccccc2C[C@H]1O [indinavir],inhibition of WT/Y796H KCNT1 channels at 10 μM,[1],did not exhibit inhibition
CNC(=O)c1cc(Oc2ccc(NC(=O)Nc3ccc(Cl)c(C(F)(F)F)c3)c(F)c2)ccn1 [regorafenib],inhibition of WT/Y796H KCNT1 channels at 10 μM,[1],inhibited
same,IC50,[2],10.3 ± 1.25 µM
Cc1c(O)cccc1C(=O)N[C@@H](CSc1ccccc1)[C@H](O)CN1C[C@H]2CCCC[C@H]2C[C@H]1C(=O)NC(C)(C)C [nelfinavir mesylate],inhibition of WT/Y796H KCNT1 channels at 10 μM,[1],inhibited
same,IC50,[2],2.86 ± 0.3 µM
